{"source": "patent US10294202B2", "about": "“Pyrrolidinones as herbicides” (FMC Corporation, priority 2013, dated 2019)", "key": {"barnyardgrass": {"test_system": "barnyardgrass", "test": "Test A pre-/postemergence herbicide test", "format": "in vivo, Echinochloa crus-galli", "settings": "for Plant response rating, Barnyardgrass: 0 to 100 scale", "in_short": "(§1)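 Visual 0–100 ratings (100 = complete control) made about 10 days after treatment, greenhouse-held plants compared with untreated controls. Treatments: postemergence sprays on one- to two-leaf plants (2–10 cm tall) and preemergence directed soil sprays after planting in loam–sand, chemicals formulated in non-phytotoxic solvent containing surfactant.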"}, "kochia": {"test_system": "kochia", "test": "Test A pre-/postemergence herbicide test", "format": "in vivo, Kochia scoparia", "settings": "for Plant response rating, Kochia: 0 to 100 scale", "in_short": "as §1"}, "ragweed": {"test_system": "ragweed", "test": "Test A pre-/postemergence herbicide test", "format": "in vivo, Ambrosia elatior", "settings": "for Plant response rating, Ragweed: 0 to 100 scale", "description": "(§2) Seeds of plant species selected from bamyardgrass (Echinochloa crus-galli), kochia (Kochia scoparia), ragweed (common ragweed, Ambrosia elatior), ryegrass, Italian (Italian ryegrass, Lolium multiflorum), crabgrass, large (large crabgrass Digitaria sanguinalis), giant foxtail (Setaria faberii), morningglory (Ipomoea spp.), pigweed (Amaranthus retroflexus), velvetleaf (Abutilon theophrasti), wheat (Triticum aestivum), and corn (Zea mays) were planted into a blend of loam soil and sand and treated preemergence with a directed soil spray using test chemicals formulated in a non-phytotoxic solvent mixture which included a surfactant. At the same time, plants selected from these crop and weed species and also blackgrass (Alopecurus myosuroides), and galium (catchweed bedstraw, Galium aparine) were planted in pots containing the same blend of loam soil and sand and treated with postemergence applications of test chemicals formulated in the same manner. Plants ranged in height from 2 to 10 cm and were in the one- to two-leaf stage for the postemergence treatment. Treated plants and untreated controls were maintained in a greenhouse for approximately 10 days, after which time all treated plants were compared to untreated controls and visually evaluated for injury. Plant response ratings, summarized in Table A, are based on a 0 to 100 scale where 0 is no effect and 100 is complete control. A dash (-) response means no test result."}, "ryegrass, Italian": {"test_system": "ryegrass, Italian", "test": "Test A pre-/postemergence herbicide test", "format": "in vivo, Lolium multiflorum", "settings": "for Plant response rating, Ryegrass, Italian: 0 to 100 scale", "description": "as §2"}, "giant foxtail": {"test_system": "giant foxtail", "test": "Test A pre-/postemergence herbicide test", "format": "in vivo, Setaria faberii", "settings": "for Plant response rating, Foxtail, Giant: 0 to 100 scale", "in_short": "as §1"}, "pigweed": {"test_system": "pigweed", "test": "Test A pre-/postemergence herbicide test", "format": "in vivo, Amaranthus retroflexus", "settings": "for Plant response rating, Pigweed: 0 to 100 scale", "in_short": "as §1"}, "wheat": {"test_system": "wheat", "test": "Test A pre-/postemergence herbicide test", "format": "in vivo, Triticum aestivum", "settings": "Postemergence; for Plant response rating, Wheat: 125 g ai/ha, 0 to 100 scale, 0 is no effect, 100 is complete control; for Wheat plant response rating (0 to 100 scale, 0 is no effect, 100 is complete control): 500 g ai/ha", "in_short": "as §1"}, "corn": {"test_system": "corn", "test": "Test A pre-/postemergence herbicide test", "format": "in vivo, Zea mays", "settings": "Postemergence; for Plant response rating, Corn: 125 g ai/ha, 0 to 100 scale, 0 is no effect, 100 is complete control; for Corn plant response rating (0 to 100 scale, 0 is no effect, 100 is complete control): 500 g ai/ha", "in_short": "as §1"}, "blackgrass": {"test_system": "blackgrass", "test": "Test A postemergence herbicide test", "format": "in vivo, Alopecurus myosuroides", "settings": "for Plant response rating, Blackgrass: 125 g ai/ha, 0 to 100 scale, 0 is no effect, 100 is complete control; for Blackgrass plant response rating (0 to 100 scale, 0 is no effect, 100 is complete control): 500 g ai/ha", "in_short": "(§3)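 Blackgrass and galium grown in pots of loam soil–sand blend, treated postemergence at 2–10 cm height, one- to two-leaf stage. Plants kept in greenhouse ~10 days, then visually rated for injury against untreated controls on a 0–100 scale (0 no effect, 100 complete control).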"}, "galium": {"test_system": "galium", "test": "Test A postemergence herbicide test", "format": "in vivo, Galium aparine", "settings": "for Plant response rating, Galium: 125 g ai/ha, 0 to 100 scale, 0 is no effect, 100 is complete control; for Galium plant response rating (0 to 100 scale, 0 is no effect, 100 is complete control): 500 g ai/ha", "in_short": "as §3"}, "[1]": {"settings": "125 g ai/ha, visual rating, 0 no effect, 100 complete control, approximately 10 days, preemergence"}, "[2]": {"settings": "Postemergence, 125 g ai/ha, 0 is no effect, 100 is complete control"}, "[3]": {"settings": "preemergence, 500 g ai/ha, 0 is no effect and 100 is complete control"}}}
{"molecule": "Cc1ccc(F)c(NC(=O)C2C(=O)NCC2c2cccc(C(F)(F)F)c2)c1", "note": "(racemic) [Compound 183]", "values": [{"measurement": "Plant response rating, Barnyardgrass", "setting": "barnyardgrass; [1]", "result": 0}, {"measurement": "Plant response rating, Barnyardgrass", "setting": "barnyardgrass; [2]", "result": 0}, {"measurement": "Barnyardgrass plant response rating (0 to 100 scale, 0 is no effect, 100 is complete control)", "setting": "barnyardgrass; Postemergence, 500 g ai/ha", "result": 0}, {"measurement": "Plant response rating, Barnyardgrass", "setting": "barnyardgrass; [3]", "result": 0}, {"measurement": "Plant response rating, Kochia", "setting": "kochia; [1]", "result": 0}, {"measurement": "Plant response rating, Kochia", "setting": "kochia; [2]", "result": 0}, {"measurement": "Kochia plant response rating (0 to 100 scale, 0 is no effect, 100 is complete control)", "setting": "kochia; Postemergence, 500 g ai/ha", "result": 0}, {"measurement": "Plant response rating, Kochia", "setting": "kochia; [3]", "result": 0}, {"measurement": "Plant response rating, Ragweed", "setting": "ragweed; [1]", "result": 0}, {"measurement": "Plant response rating, Ragweed", "setting": "ragweed; [2]", "result": 0}, {"measurement": "Ragweed plant response rating (0 to 100 scale, 0 is no effect, 100 is complete control)", "setting": "ragweed; Postemergence, 500 g ai/ha", "result": 0}, {"measurement": "Plant response rating, Ragweed", "setting": "ragweed; [3]", "result": 0}, {"measurement": "Plant response rating, Ryegrass, Italian", "setting": "ryegrass, Italian; [1]", "result": 0}, {"measurement": "Plant response rating, Ryegrass, Italian", "setting": "ryegrass, Italian; [2]", "result": 0}, {"measurement": "Ryegrass, Italian plant response rating (0 to 100 scale, 0 is no effect, 100 is complete control)", "setting": "ryegrass, Italian; Postemergence, 500 g ai/ha", "result": 0}, {"measurement": "Plant response rating, Ryegrass, Italian", "setting": "ryegrass, Italian; [3]", "result": 0}, {"measurement": "Plant response rating, Foxtail, Giant", "setting": "giant foxtail; [1]", "result": 0}, {"measurement": "Plant response rating, Foxtail, Giant", "setting": "giant foxtail; [2]", "result": 0}, {"measurement": "Foxtail, Giant plant response rating (0 to 100 scale, 0 is no effect, 100 is complete control)", "setting": "giant foxtail; Postemergence, 500 g ai/ha", "result": 0}, {"measurement": "Plant response rating, Foxtail, Giant", "setting": "giant foxtail; [3]", "result": 0}, {"measurement": "Plant response rating, Pigweed", "setting": "pigweed; [1]", "result": 0}, {"measurement": "Plant response rating, Pigweed", "setting": "pigweed; [2]", "result": 0}, {"measurement": "Pigweed plant response rating (0 to 100 scale, 0 is no effect, 100 is complete control)", "setting": "pigweed; Postemergence, 500 g ai/ha", "result": 0}, {"measurement": "Plant response rating, Pigweed", "setting": "pigweed; [3]", "result": 0}, {"measurement": "Plant response rating, Wheat", "setting": "wheat", "result": 0}, {"measurement": "Wheat plant response rating (0 to 100 scale, 0 is no effect, 100 is complete control)", "setting": "wheat", "result": 0}, {"measurement": "Plant response rating, Corn", "setting": "corn", "result": 0}, {"measurement": "Corn plant response rating (0 to 100 scale, 0 is no effect, 100 is complete control)", "setting": "corn", "result": 0}, {"measurement": "Plant response rating, Blackgrass", "setting": "blackgrass", "result": 0}, {"measurement": "Blackgrass plant response rating (0 to 100 scale, 0 is no effect, 100 is complete control)", "setting": "blackgrass", "result": 0}, {"measurement": "Plant response rating, Galium", "setting": "galium", "result": 0}, {"measurement": "Galium plant response rating (0 to 100 scale, 0 is no effect, 100 is complete control)", "setting": "galium", "result": 0}]}
{"molecule": "Cc1cc(NC(=O)C2C(=O)NCC2c2cccc(C(F)(F)F)c2)ccc1F", "note": "(racemic) [Compound 185]", "values": [{"measurement": "Plant response rating, Barnyardgrass", "setting": "barnyardgrass; [1]", "result": 40}, {"measurement": "Plant response rating, Barnyardgrass", "setting": "barnyardgrass; [2]", "result": 40}, {"measurement": "Barnyardgrass plant response rating (0 to 100 scale, 0 is no effect, 100 is complete control)", "setting": "barnyardgrass; Postemergence, 500 g ai/ha", "result": 80}, {"measurement": "Plant response rating, Barnyardgrass", "setting": "barnyardgrass; [3]", "result": 70}, {"measurement": "Plant response rating, Kochia", "setting": "kochia; [1]", "result": 0}, {"measurement": "Plant response rating, Kochia", "setting": "kochia; [2]", "result": 0}, {"measurement": "Kochia plant response rating (0 to 100 scale, 0 is no effect, 100 is complete control)", "setting": "kochia; Postemergence, 500 g ai/ha", "result": 0}, {"measurement": "Plant response rating, Kochia", "setting": "kochia; [3]", "result": 40}, {"measurement": "Plant response rating, Ragweed", "setting": "ragweed; [1]", "result": 0}, {"measurement": "Plant response rating, Ragweed", "setting": "ragweed; [2]", "result": 0}, {"measurement": "Ragweed plant response rating (0 to 100 scale, 0 is no effect, 100 is complete control)", "setting": "ragweed; Postemergence, 500 g ai/ha", "result": 0}, {"measurement": "Plant response rating, Ragweed", "setting": "ragweed; [3]", "result": 0}, {"measurement": "Plant response rating, Ryegrass, Italian", "setting": "ryegrass, Italian; [1]", "result": 0}, {"measurement": "Plant response rating, Ryegrass, Italian", "setting": "ryegrass, Italian; [2]", "result": 0}, {"measurement": "Ryegrass, Italian plant response rating (0 to 100 scale, 0 is no effect, 100 is complete control)", "setting": "ryegrass, Italian; Postemergence, 500 g ai/ha", "result": 0}, {"measurement": "Plant response rating, Ryegrass, Italian", "setting": "ryegrass, Italian; [3]", "result": 20}, {"measurement": "Plant response rating, Foxtail, Giant", "setting": "giant foxtail; [1]", "result": 70}, {"measurement": "Plant response rating, Foxtail, Giant", "setting": "giant foxtail; [2]", "result": 20}, {"measurement": "Foxtail, Giant plant response rating (0 to 100 scale, 0 is no effect, 100 is complete control)", "setting": "giant foxtail; Postemergence, 500 g ai/ha", "result": 80}, {"measurement": "Plant response rating, Foxtail, Giant", "setting": "giant foxtail; [3]", "result": 90}, {"measurement": "Plant response rating, Pigweed", "setting": "pigweed; [1]", "result": 0}, {"measurement": "Plant response rating, Pigweed", "setting": "pigweed; [2]", "result": 0}, {"measurement": "Pigweed plant response rating (0 to 100 scale, 0 is no effect, 100 is complete control)", "setting": "pigweed; Postemergence, 500 g ai/ha", "result": 0}, {"measurement": "Plant response rating, Pigweed", "setting": "pigweed; [3]", "result": 20}, {"measurement": "Plant response rating, Wheat", "setting": "wheat", "result": 0}, {"measurement": "Wheat plant response rating (0 to 100 scale, 0 is no effect, 100 is complete control)", "setting": "wheat", "result": 20}, {"measurement": "Plant response rating, Corn", "setting": "corn", "result": 0}, {"measurement": "Corn plant response rating (0 to 100 scale, 0 is no effect, 100 is complete control)", "setting": "corn", "result": 20}, {"measurement": "Plant response rating, Blackgrass", "setting": "blackgrass", "result": 0}, {"measurement": "Blackgrass plant response rating (0 to 100 scale, 0 is no effect, 100 is complete control)", "setting": "blackgrass", "result": 20}, {"measurement": "Plant response rating, Galium", "setting": "galium", "result": 0}, {"measurement": "Galium plant response rating (0 to 100 scale, 0 is no effect, 100 is complete control)", "setting": "galium", "result": 0}]}
